Patent US20180230399A1, “ORGANIC COMPOUNDS” (GIVAUDAN SA, priority 2014, published 2018)
Read-outs that look alike come from different tables or passages of the source.

Assays:
[1] = tested on: hepatocytes from male rats (Sprague Dawley); assay: In vitro metabolism study in rat hepatocytes in suspension, GC-MS; details: for Benzoic acid derivative concentration / Residual conc.: male, Sprague-Dawley, rat, 4 h, 100 μM
Procedure: In order to study in vitro metabolism in rat hepatocytes, Lilial™ and compounds of the present invention may be incubated in the presence of rat hepatocytes in suspension. Reduction in the concentration of Lilial™ and the compounds of the present invention and formation of any of the corresponding benzoic acid derivatives may be analysed by GC-MS.
Cryopreserved hepatocytes from male rats (Sprague Dawley; Lifetechnologies) were defrozen, washed in Cyropreserved Hepatocytes Recovery Medium (CHRM; Lifetechnologies) and suspended in Williams E Medium (WEM; Lifetechnologies). Lilial™, or the compounds of the present invention (final concentration: 100 μM) were added to the cells (1×10^6 viable cells/ml) and suspensions were incubated up to 4 hours at 37° C. on a shaker in duplicate. Metabolism of testosterone was monitored as positive control. Decrease of the test compounds and formation of the corresponding benzoic acid derivative was determined by GC-MS analysis of methyl esters formed after derivatisation with trimethylsilyl diazomethane (Sigma-Aldrich) in methanol. The test compounds react with diazomethane yielding a methyl ketone which was used for the quantification of Lilial™ and the compound of formula (I). Metabolism was stopped with ice cold 1 M HCl, samples were extracted with tert-butyl methyl ether (MTBE) and analysed by GC-MS. Incubations containing testosterone as control were also stopped with ice cold 1 M HCl, centrifuged to separate the cells, filtrated and the decrease of testosterone analysed by LC-MS. To quantify decrease of the test substances and formation of benzoic acid metabolites, calibration curves of reference materials Lilial™ and the compounds of the present invention, tert-butyl benzoic acid (Fluka) was prepared in hepatocyte incubation medium and analysed like the hepatocyte samples.

[2] = Formation of the corresponding esters with Coenzym A; assay type: in vitro ADME; details: further experiment
guinea-pigs = details: cited from earlier work
primates = details: cited from earlier work
mice = details: cited from earlier work
male rats = details: Hunter et al. 1965, Cagen et al. 1989; cited from earlier work
fatty acid synthesis = details: in vitro; McCune et al 1982; cited from earlier work
glucose synthesis = details: in vitro; McCune et al 1982; cited from earlier work

## CC(C)c1ccc(CCCC=O)cc1
[1]
  Benzoic acid derivative concentration: 1.4 µM
  Residual conc.: 0 µM

## CC(C)(C)c1ccc(CCCC=O)cc1
[1]
  Benzoic acid derivative concentration: 1.3 µM
  Residual conc.: 0.7 µM

## CC(C)Cc1ccc(CCCC=O)cc1
[1]
  Benzoic acid derivative concentration: 0.5 µM
  Residual conc.: 0.2 µM

## Cc1cc(CC(C)C)ccc1CCCC=O [Example 3, 4-(4-Isobutyl-2-methylphenyl)butanal]
[2]
  Formation of the corresponding esters with Coenzym A: does not provide the formation of the corresponding esters with Coenzym A

## CC(C=O)Cc1ccc(C(C)(C)C)cc1 (stereo not shown) [Lilial™, 3-(4-tert-butylphenyl)-2-methylpropanal]
guinea-pigs
  Effects in studies: No effects
[1]
  Decrease of the test compound (in words): metabolised rapidly
  Residual conc.: 0 µM
primates
  Effects in studies: No effects
mice
  Effects in studies: No effects

## CC(C)(C)c1ccc(C(=O)O)cc1 [tert-Butyl benzoic acid, tert-butyl benzoic acid]
Male rats
  Testicular effects: testicular effects
Fatty acid synthesis
  Inhibition of fatty acid synthesis: inhibit
Glucose synthesis
  Inhibition of glucose synthesis: inhibit

## C[C@]12CC[C@H]3[C@@H](CCC4=CC(=O)CC[C@@]43C)[C@@H]1CC[C@@H]2O [testosterone]
[1]; rat hepatocytes, up to 4 hours at 37° C.
  Decrease of the test compound (in words): rapid decrease
